Reference: patent publication US20020013306A1, “TERPYRIDINE-PLATINUM(II) COMPLEXES” (priority 1996, published 2002)
Several values for one entry are separate records, joined by “and”; a condition that tells them apart may be missing. Equal entries are not always repeated. Where two headings read alike, the source gives them in different places.

How the values were obtained:
[1] = tested on: CH1 human ovarian carcinoma cell line; assay: 96 h growth inhibition, sulforhodamine B assay, CH1; type: cell-based; conditions: 96 h exposure, v = variable (mean)
[2] = tested on: CH1cis^R human ovarian carcinoma cell line (cisplatin resistant); assay: 96 h growth inhibition, sulforhodamine B assay, CH1cisR; type: cell-based; conditions: for IC50: 96 h exposure, growth inhibition, v = variable (mean); for RF resistance factor: IC50 resistant line/IC50 parent line: CH1cis^R / CH1
[3] = tested on: CH1dox^R human ovarian carcinoma cell line (doxorubicin resistant); assay: 96 h growth inhibition, sulforhodamine B assay, CH1doxR; type: cell-based; conditions: for IC50: 96 h exposure, growth inhibition; for RF resistance factor: IC50 resistant line/IC50 parent line: CH1dox^R / CH1
[4] = tested on: A2780 human ovarian carcinoma cell line; assay: 96 h growth inhibition, sulforhodamine B assay, A2780; type: cell-based; conditions: 96 h exposure, v = variable (mean)
[5] = tested on: A2780cis^R human ovarian carcinoma cell line (cisplatin resistant); assay: 96 h growth inhibition, sulforhodamine B assay, A2780cisR; type: cell-based; conditions: for IC50: 96 h exposure, growth inhibition, v = variable (mean); for RF resistance factor: IC50 resistant line/IC50 parent line: A2780cis^R / A2780
[6] = tested on: SKOV3 human ovarian carcinoma cell line; assay: 96 h growth inhibition, sulforhodamine B assay, SKOV3; type: cell-based; conditions: 96 h exposure, v = variable (mean)
[7] = tested on: T. brucei (S427) bloodstream trypomastigotes; assay: Trypanosoma brucei bloodstream trypomastigote culture; type: cell-based
[8] = tested on: P falciparum (chloroquin resistant strain K1); assay: In vitro antimalarial activity, chloroquine resistant K1; conditions: for % Inhibition (compound duplicates), K1 P. falciparum: duplicates (1),(2)
Protocol: Plasmodium falciparum: P falciparum (chloroquin resistant strain K1) was cultured at 37° C. in a 5% suspension of infected so erythrocytes (group A Rh^+) in complete medium as described by E L Elueze, S L Croft and D C Warhurst, J Antimicrobial Chemotherapy, 1996, 37, 511-518. The in vitro antimalarial activity of compounds were likewise determined according to their protocol. Mefloquin was used as the positive control.”

T. cruzi (MHOM/BR/00/Y) = assay: Trypanosoma cruzi in mouse peritoneal macrophages; type: cell-based
Protocol: Trypanosoma cruzi: […] Drug activity was determined from the % of infected macrophages in treated cultures. Nifurtimox was used as the positive control.

[9] = deuterated water; NMR immediately, 1, 2, 17 hours, one and two weeks
Protocol: A solution of (4-picoline) (4′-aziridinoterpyridine) platinum (II) tetrafluoroborate in deuterated water was prepared. NMR spectra were recorded immediately, after 1, 2 and 17 hours, then after one and two weeks.

calf-thymus (ct)-DNA = conditions: literature [1]-[3]; cited from earlier work
[10] = Acid/base stability by NMR; conditions: diethylamine in deuterated chloroform; directly afterwards and after 20 hours
Protocol: Diethylamine (2 ml) was added to a solution of 4′-aziridinoterpyridine (5 mg) in deuterated chloroform in a NMR tube.
NMR spectra were recorded immediately and after 1, 2, 4 and 24 hours.

polyfd(A-T)2) = assay: Circular dichroism equilibrium binding
From the text: (§1) The double positive charge on 4-picoline-2,2′:6′,2″-terpyridine-platinum(II), together with the intercalative binding mode is probably responsible for the large binding constant.

DNA [11] = assay: Ligation assay (DNA unwinding); type: binding
From the text: as §1

DNA [12] = assay: Fluorescence spectroscopy, ethidium bromide displacement; type: binding
From the text: as §1

[13] = tested on: CHl human ovarian carcinoma subcutaneously implanted xenograph; assay: CH1 human ovarian carcinoma xenograft in vivo
Protocol: In view of the in vitro results, compound (A) was investigated in vivo using the CHl human ovarian carcinoma subcutaneously implanted xenograph. The compound was administered intraperitoneally at weekly intervals for 4 weeks. Two dose levels were used; 30 and 60 mg/kg. Tumours were approximately 6-8 mm maximum diameter at the beginning of treatment. […] Two endpoints were determined, the 28 day T/C (the ratio of Treated versus Control volumes at day 28 post initial treatment) and the growth delay (GD: the difference in time taken for Treated versus Control groups to double in volume).
At the lower dose there was a growth delay (GD) 83.1. […] It seems likely that by using a still lower and more frequent drug schedule (e.g. daily) greater control over tumour growth could be achieved.

[14] = Single intraperitoneal injection toxicity in tumour-bearing mice (ADJ/PC6); type: in vivo
Protocol: Compound (A) was also administered as a single intraperitoneal injection in water to mice bearing subcutaneously implanted tumours e.g. ADJ/PC6 (according to the standard protocol for evaluating platinum complexes).

[15] = read-out: IC50 (avg), K1 P. falciparum, average of duplicates

In the case of `Cc1cc[n+]([Pt-2]23[n+]4ccccc4-c4cc(-c5ccc(Br)cc5)cc([n+]42)-c2cccc[n+]23)cc1.F[B-](F)(F)F.F[B-](F)(F)F` [Q], the IC50 [1] is reported as 5 µM, the IC50 [2] is reported as 5.8 µM and the “RF resistance factor: IC50 resistant line/IC50 parent line” value (shortened to “RF resistance factor”) [2] is reported as 1.2. The IC50 [3] was 1.05 µM, the “RF resistance factor” value [3] was 0.2 and the IC50 [4] was 39 µM. For the same compound, the IC50 [5] was 29.5 µM, the “RF resistance factor” value [5] was 0.8 and the IC50 [6] was greater than 100 µM. For the same compound, the “% Inhibition, Trypanosoma brucei” value ([7]; 0.1 μM) was 0%, the “% Inhibition, Trypanosoma brucei” value ([7]; 0.3 μM) was 100% and the “% Inhibition, Trypanosoma brucei” value ([7]; 1 μM) was 100%. For the same compound, the “% Inhibition, Trypanosoma brucei” value ([7]; 3 μM) was 100%, the “% Inhibition, Trypanosoma brucei” value ([7]; 10 μM) was 100% and the “% Inhibition, Trypanosoma brucei” value ([7]; 30 μM) was 100%. For the same compound, the “% Inhibition (compound duplicates), K1 P. falciparum” value (from here on “% Inhibition … K1 P. falciparum”) ([8]; Concn. 15 μM) was 97.0%, the “% Inhibition … K1 P. falciparum” value ([8]; Concn. 30 μM) was 99.8% and the “% Inhibition … K1 P. falciparum” value ([8]; Concn. 75 μM) was 98.6%. For the same compound, the “% Inhibition … K1 P. falciparum” value ([8]; Concn. 375 μM) was 60.8%, the “% Inhibition … K1 P. falciparum” value ([8]; Concn. 1875 μM) was 46.1% and the “% Inhibition … K1 P. falciparum” value ([8]; Concn. 09375 μM) was 0%. The “% Inhibition … K1 P. falciparum” value ([8]; Concn. 046875 μM) was 0%, the “% Inhibition … K1 P. falciparum” value ([8]; Concn. 0234375 μM) was 0% and the IC50 [8, 15] was 2.4 µM.
In the case of `Cc1ccncc1.F[B-](F)(F)F.F[B-](F)(F)F.[Pt+2].c1ccc(-c2cc(N3CC3)cc(-c3ccccn3)n2)nc1` [T, (4-Picoline)(4′-Aziridino-2,2′:6′,2″-Terpyridine) Platinum (II) Tetra-fluoroborate], the IC50 [1] is reported as 4.6 µM, the IC50 [2] is reported as 3.7 µM and the IC50 [3] is reported as 4.2 µM. The IC50 [4] was 7.7 µM, the IC50 [5] was 20 µM and the IC50 [6] was 19 µM. For the same compound, the “% Inhibition, Trypanosoma cruzi” value (T. cruzi (MHOM/BR/00/Y); 1 μM) was 0%, the “% Inhibition, Trypanosoma cruzi” value (T. cruzi (MHOM/BR/00/Y); 3 μM) was 0% and the “% Inhibition, Trypanosoma cruzi” value (T. cruzi (MHOM/BR/00/Y); 10 μM) was 0%. For the same compound, the “% Inhibition, Trypanosoma cruzi” value (T. cruzi (MHOM/BR/00/Y); 30 μM) was 0%, the “% Inhibition, Trypanosoma brucei” value ([7]; 0.1 μM) was 54.2% and the “% Inhibition, Trypanosoma brucei” value ([7]; 0.3 μM) was 78.9%. For the same compound, the “% Inhibition, Trypanosoma brucei” value ([7]; 1 μM) was 100%, the “% Inhibition, Trypanosoma brucei” value ([7]; 3 μM) was 100% and the “% Inhibition, Trypanosoma brucei” value ([7]; 10 μM) was 100%. The “% Inhibition, Trypanosoma brucei” value ([7]; 30 μM) was 100% and the “stability in aqueous solution” value [9] was “stable to nucleophilic attack by water under neutral conditions”.
In the case of “hydroxyethanethiol-2,2′:6′,2″-terpyridine-platinum(II) [1,R═SCH2CH2OH, reference compound]”, the “binding association constant with ct-DNA” value (calf-thymus (ct)-DNA) is given as 83000 M⁻¹.
In the case of `c1ccc(-c2cc(N3CC3)cc(-c3ccccn3)n2)nc1` [4′-aziridinoterpyridine, 4′-Aziridino-2,2′:6′,2″-Terpyridine], the stability to base [10] is reported as “No change in the NMR spectrum”.
For `[Cl-].[Cl-].[Pt+2].c1ccc(-c2cccc(-c3ccccn3)n2)nc1` [Compound A13, chloro(2,2′:6′,2″-terpyridine)platinum(II) chloride], the IC50 [1] was 6.6 µM, the IC50 [2] was 6.4 µM and the “RF resistance factor” value [2] was 1. For the same compound, the IC50 [3] was 3.75 µM, the “RF resistance factor” value [3] was 0.6 and the IC50 [4] was 49 µM. For the same compound, the IC50 [5] was 41 µM, the “RF resistance factor” value [5] was 0.8 and the IC50 [6] was 19.5 µM. The “% Inhibition, Trypanosoma cruzi” value (T. cruzi (MHOM/BR/00/Y); 1 μM) was 52.0%, the “% Inhibition, Trypanosoma cruzi” value (T. cruzi (MHOM/BR/00/Y); 3 μM) was 76.0% and the “% Inhibition, Trypanosoma cruzi” value (T. cruzi (MHOM/BR/00/Y); 10 μM) was 99.0%. The “% Inhibition, Trypanosoma cruzi” value (T. cruzi (MHOM/BR/00/Y); 30 μM) was 99.3%, the “% Inhibition, Trypanosoma brucei” value ([7]; 0.1 μM) was 26.2% and the “% Inhibition, Trypanosoma brucei” value ([7]; 0.3 μM) was 100%. For the same compound, the “% Inhibition, Trypanosoma brucei” value ([7]; 1 μM) was 100%, the “% Inhibition, Trypanosoma brucei” value ([7]; 3 μM) was 100% and the “% Inhibition, Trypanosoma brucei” value ([7]; 10 μM) was 100%. For the same compound, the “% Inhibition, Trypanosoma brucei” value ([7]; 30 μM) was 100% and the “binding association constant with ct-DNA” value (calf-thymus (ct)-DNA) was “essentially the same binding constant”.
For `Cc1ccncc1.F[B-](F)(F)F.F[B-](F)(F)F.[Pt+2].c1ccc(-c2cccc(-c3ccccn3)n2)nc1` [A, 4-picoline-2,2′:6′:2″-terpyridine-platinum(II) tetrafluoroborate], the IC50 [1] was 14 µM, the IC50 [2] was 11 µM and the “RF resistance factor” value [2] was 0.8. For the same compound, the IC50 [3] was 4.4 µM, the “RF resistance factor” value [3] was 0.3 and the IC50 [4] was 17 µM. For the same compound, the IC50 [5] was greater than 100 µM, the IC50 [6] was 20 µM and the “% Inhibition, Trypanosoma cruzi” value (T. cruzi (MHOM/BR/00/Y); 30 μM) was 100%. The “% Inhibition, Trypanosoma brucei” value ([7]; 0.03 μM) was 83.3%, the “% Inhibition, Trypanosoma brucei” value ([7]; 0.1 μM) was 100% and the “% Inhibition, Trypanosoma brucei” value ([7]; 0.3 μM) was 100%. For the same compound, the “% Inhibition, Trypanosoma brucei” value ([7]; 1 μM) was 100%, the “% Inhibition, Trypanosoma brucei” value ([7]; 3 μM) was 100% and the “% Inhibition, Trypanosoma brucei” value ([7]; 10 μM) was 100%. The “% Inhibition, Trypanosoma brucei” value ([7]; 30 μM) was 100%, the “equilibrium binding constant, second binding mode” value (polyfd(A-T)2); site size of about 2 base pairs) was “about 1×10^6 M^−1” and the “equilibrium binding constant, most stable binding mode” value (polyfd(A-T)2); site size of about 4 base pairs) was “approximately 2×10^7 M^−1”. For the same compound, the “DNA unwinding / intercalation in ligation assay” value (DNA [11]) was “unwind and so intercalate into DNA”, the “displacement of ethidium bromide bound to DNA” value (DNA [12]) was “displaces ethidium bromide bound to DNA” and the “growth delay (GD)” value ([13]; 30 mg/kg (lower dose) intraperitoneally, weekly for 4 weeks) was 83.1. The “local peritoneal organ damage” value ([13]; 60 mg/kg (higher dose) i.p. weekly for 4 weeks) was “evidence, of local peritoneal organ damage”, the “deaths due to drug toxicity” value ([13]; 30 and 60 mg/kg i.p. weekly for 4 weeks) was “no deaths due to drug toxicity” and the “effect on tumour growth (Relative Tumour Volume)” value ([13]; 30 and 60 mg/kg i.p. weekly for 4 weeks, especially at the lower dose) was “induces a growth inhibitory effect”. For the same compound, the “toxicity, single intraperitoneal injection” value ([14]; 50 mg/kg in water) was “no toxic affect”, the “toxicity, single intraperitoneal injection” value ([14]; 100 mg/kg in water) was “toxic” and the LD50 ([14]; single intraperitoneal injection) was “approximately 70 mg/kg”.
In the case of `Cc1cc[n+]([Pt-2]23[n+]4ccccc4-c4cc(Cl)cc([n+]42)-c2cccc[n+]23)cc1.F[B-](F)(F)F.F[B-](F)(F)F` [I], the IC50 [1] is reported as 6.35 µM, the IC50 [2] is reported as 6.4 µM and the “RF resistance factor” value [2] is reported as 1. The IC50 [3] was 0.425 µM, the “RF resistance factor” value [3] was 0.07 and the IC50 [4] was 14.5 µM. For the same compound, the IC50 [5] was 14.5 µM, the “RF resistance factor” value [5] was 1 and the IC50 [6] was 5.6 µM. For the same compound, the “% Inhibition, Trypanosoma cruzi” value (T. cruzi (MHOM/BR/00/Y); 1 μM) was 59.7%, the “% Inhibition, Trypanosoma cruzi” value (T. cruzi (MHOM/BR/00/Y); 3 μM) was 73.5% and the “% Inhibition, Trypanosoma cruzi” value (T. cruzi (MHOM/BR/00/Y); 10 μM) was 97.0%. The “% Inhibition, Trypanosoma cruzi” value (T. cruzi (MHOM/BR/00/Y); 30 μM) was 100%, the “% Inhibition, Trypanosoma brucei” value ([7]; 0.1 μM) was 99.2% and the “% Inhibition, Trypanosoma brucei” value ([7]; 0.3 μM) was 83.8%. The “% Inhibition, Trypanosoma brucei” value ([7]; 1 μM) was 100%, the “% Inhibition, Trypanosoma brucei” value ([7]; 3 μM) was 100% and the “% Inhibition, Trypanosoma brucei” value ([7]; 10 μM) was 100%. The “% Inhibition, Trypanosoma brucei” value ([7]; 30 μM) was 100%, the “% Inhibition … K1 P. falciparum” value ([8]; Concn. 15 μM) was 14.2% and 9.4% and the “% Inhibition … K1 P. falciparum” value ([8]; Concn. 30 μM) was 93.2% and 90.9%. For the same compound, the “% Inhibition … K1 P. falciparum” value ([8]; Concn. 75 μM) was 1.9% and 2.1%, the “% Inhibition … K1 P. falciparum” value ([8]; Concn. 375 μM) was 0% and the “% Inhibition … K1 P. falciparum” value ([8]; Concn. 1875 μM) was 0%. For the same compound, the “% Inhibition … K1 P. falciparum” value ([8]; Concn. 09375 μM) was 0%, the “% Inhibition … K1 P. falciparum” value ([8]; Concn. 046875 μM) was 0% and the “% Inhibition … K1 P. falciparum” value ([8]; Concn. 0234375 μM) was 0%. For the same compound, the IC50 [8, 15] was 20.6 µM and the IC50 ([8]; read-out: IC50, K1 P. falciparum, each duplicate (1),(2)) was 19.9 µM and 21.2 µM.
